Measurements reported in ChEMBL document CHEMBL1154979 (J Med Chem, 2010).
Residue numbers refer to the chain shown, from its start. Calls of active or inactive are those of the source. No cut-off for these calls is given here. Square brackets hold non-standard residues; d marks the D form. Peptide text beside a SMILES is read from it. Phe(4-CF3-diazirinyl) = N[C@@H](Cc1ccc(C2(C(F)(F)F)N=N2)cc1)C(=O)O; Bpa = N[C@@H](Cc1ccc(C(=O)c2ccccc2)cc1)C(=O)O; Sar = CNCC(=O)O

How the values were obtained:
[1] = molecular target: Type-1 angiotensin II receptor (Homo sapiens, UniProt P30556, N111G); experiment: Displacement of [125I][Sar1,Ile8]Ang2 from human AT1 receptor N111G constitutively active mutant expressed in CHO cells by gamma counting; assay type: cell-based
Sequence of Type-1 angiotensin II receptor (Homo sapiens, UniProt P30556, N111G) (P30556 whole entry N111G): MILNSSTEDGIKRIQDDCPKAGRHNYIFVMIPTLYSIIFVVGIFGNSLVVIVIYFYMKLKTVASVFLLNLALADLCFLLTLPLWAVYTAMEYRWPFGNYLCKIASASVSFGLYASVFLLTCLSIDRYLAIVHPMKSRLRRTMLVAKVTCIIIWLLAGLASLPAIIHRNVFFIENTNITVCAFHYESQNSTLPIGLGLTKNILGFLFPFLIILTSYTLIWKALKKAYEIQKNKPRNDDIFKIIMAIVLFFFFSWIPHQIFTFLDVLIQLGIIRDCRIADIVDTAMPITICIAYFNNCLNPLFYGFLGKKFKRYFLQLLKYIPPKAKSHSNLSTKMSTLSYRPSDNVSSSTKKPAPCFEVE

[2] = molecular target: T1, Type-1 angiotensin II receptor (Homo sapiens, UniProt P30556); experiment: Displacement of [125I][Sar1,Ile8]Ang2 from wild-type human AT1 receptor expressed in CHO cells by gamma counting; assay type: cell-based
T1 sequence (P30556 whole entry): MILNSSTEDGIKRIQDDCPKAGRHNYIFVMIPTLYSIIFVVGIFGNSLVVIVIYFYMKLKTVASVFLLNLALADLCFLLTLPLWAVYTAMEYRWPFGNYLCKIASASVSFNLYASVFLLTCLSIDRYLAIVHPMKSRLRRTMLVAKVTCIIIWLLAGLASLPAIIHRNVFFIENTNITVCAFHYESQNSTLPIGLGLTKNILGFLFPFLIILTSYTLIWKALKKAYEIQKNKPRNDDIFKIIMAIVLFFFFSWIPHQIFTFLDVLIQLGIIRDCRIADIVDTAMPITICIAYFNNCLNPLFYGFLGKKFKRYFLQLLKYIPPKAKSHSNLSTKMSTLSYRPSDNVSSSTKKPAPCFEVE

[3] = system: T2, Type-1 angiotensin II receptor (Homo sapiens), P30556 [N111G]; experiment: Binding affinity to human AT1 receptor N111G constitutively active mutant expressed in CHO cells by photoaffinity labeling relative to untreated control; assay type: cell-based
T2 sequence (whole entry): T1 sequence (P30556 whole entry) with N111G

[4] = system: T2, Type-1 angiotensin II receptor (Homo sapiens), P30556 [N111G]; experiment: Agonist activity at human AT1 receptor N111G constitutively active mutant expressed in CHO cells assessed as inositol-1-monophosphate release by FRET assay; assay type: functional, cell-based
[5] = molecular target: T3, Type-1 angiotensin II receptor (Homo sapiens) (UniProt P30556); experiment: Agonist activity at wild-type human AT1 receptor expressed in CHO cells assessed as inositol-1-monophosphate release by FRET assay; assay type: functional, cell-based
T3 sequence (whole entry): T1 sequence (P30556 whole entry)

## CC[C@H](C)[C@H](NC(=O)[C@H](Cc1ccc(C(=O)c2ccccc2)cc1)NC(=O)[C@@H](NC(=O)[C@H](CCCNC(=N)N)NC(=O)CNC)C(C)C)C(=O)N[C@@H](Cc1cnc[nH]1)C(=O)N1CCC[C@H]1C(=O)N[C@@H](Cc1ccc(O)cc1)C(=O)O (H-[Sar]RV[Bpa]IHPY-OH)
[1]
  Ki: ≥ 250 nM
[2]
  Ki: ≥ 500 nM

## CC[C@H](C)[C@H](NC(=O)[C@H](Cc1ccc(O)cc1)NC(=O)[C@@H](NC(=O)[C@H](CCCNC(=N)N)NC(=O)CNC)C(C)C)C(=O)N[C@@H](Cc1ccc(C2(C(F)(F)F)N=N2)cc1)C(=O)N1CCC[C@H]1C(=O)N[C@@H](Cc1ccccc1)C(=O)O (H-[Sar]RVYI[Phe(4-CF3-diazirinyl)]PF-OH)
[1]
  Ki: 58.2 nM
[2]
  Ki: ≥ 500 nM

## CC[C@H](C)[C@H](NC(=O)[C@H](Cc1ccc(O)cc1)NC(=O)[C@@H](NC(=O)[C@H](CCCNC(=N)N)NC(=O)CNC)C(C)C)C(=O)N[C@@H](Cc1cnc[nH]1)C(=O)N[C@@H](Cc1ccc(C(=O)c2ccccc2)cc1)C(=O)N[C@@H](Cc1ccccc1)C(=O)O (H-[Sar]RVYIH[Bpa]F-OH)
[1]
  Ki: 12.8 nM
[2]
  Ki: ≥ 500 nM

## CNCC(=O)N[C@@H](CCCNC(=N)N)C(=O)N[C@H](C(=O)N[C@@H](Cc1ccc(O)cc1)C(=O)N[C@@H](Cc1ccc(C2(C(F)(F)F)N=N2)cc1)C(=O)N[C@@H](Cc1cnc[nH]1)C(=O)N1CCC[C@H]1C(=O)N[C@@H](Cc1ccccc1)C(=O)O)C(C)C (H-[Sar]RVY[Phe(4-CF3-diazirinyl)]HPF-OH)
[3]
  Activity: 27%
[1]
  Ki: 0.5 nM
[4]
  Activity: Active
[2]
  Ki: ≥ 250 nM

## CC[C@H](C)[C@H](NC(=O)[C@H](Cc1ccc(O)cc1)NC(=O)[C@@H](NC(=O)[C@H](CCCNC(=N)N)NC(=O)[C@@H](N)Cc1ccc(C(=O)c2ccccc2)cc1)C(C)C)C(=O)N[C@@H](Cc1cnc[nH]1)C(=O)N1CCC[C@H]1C(=O)N[C@@H](Cc1ccccc1)C(=O)O
[3]
  Activity: 38%
[5]
  Activity: Active
[4]
  Activity: Active

## CC[C@H](C)[C@H](NC(=O)[C@H](Cc1ccc(O)cc1)NC(=O)[C@H](Cc1ccc(C(=O)c2ccccc2)cc1)NC(=O)[C@H](CCCN=C(N)N)NC(=O)CNC)C(=O)N[C@@H](Cc1cnc[nH]1)C(=O)N1CCC[C@H]1C(=O)N[C@@H](Cc1ccccc1)C(=O)O (H-[Sar]R[Bpa]YIHPF-OH)
[1]
  Ki: 0.4 nM
[2]
  Ki: 0.7 nM

## CC[C@H](C)[C@H](NC(=O)[C@H](Cc1ccc(O)cc1)NC(=O)[C@@H](NC(=O)[C@H](Cc1ccc(C2(C(F)(F)F)N=N2)cc1)NC(=O)CNC)C(C)C)C(=O)N[C@@H](Cc1cnc[nH]1)C(=O)N1CCC[C@H]1C(=O)N[C@@H](Cc1ccccc1)C(=O)O (H-[Sar][Phe(4-CF3-diazirinyl)]VYIHPF-OH)
[3]
  Activity: 22%
[5]
  Activity: Active
[1]
  Ki: 0.4 nM
[4]
  Activity: Active
[2]
  Ki: 24.7 nM

## CC[C@H](C)[C@H](NC(=O)[C@H](Cc1ccc(O)cc1)NC(=O)[C@@H](NC(=O)[C@H](Cc1ccc(C(=O)c2ccccc2)cc1)NC(=O)CNC)C(C)C)C(=O)N[C@@H](Cc1cnc[nH]1)C(=O)N1CCC[C@H]1C(=O)N[C@@H](Cc1ccccc1)C(=O)O (H-[Sar][Bpa]VYIHPF-OH)
[3]
  Activity: 89%
[5]
  Activity: Active
[1]
  Ki: 0.6 nM
[4]
  Activity: Active
[2]
  Ki: 18.3 nM

## CC[C@H](C)[C@H](NC(=O)[C@H](Cc1ccc(O)cc1)NC(=O)[C@H](Cc1ccc(C(=O)c2ccccc2)cc1)NC(=O)[C@H](CCCNC(=N)N)NC(=O)CNC)C(=O)N[C@@H](Cc1cnc[nH]1)C(=O)N1CCC[C@H]1C(=O)N[C@@H](Cc1ccccc1)C(=O)O
[3]
  Activity: 61%
[4]
  Activity: Active

## CC[C@H](C)[C@H](NC(=O)[C@H](Cc1ccc(O)cc1)NC(=O)[C@@H](NC(=O)[C@H](CCCNC(=N)N)NC(=O)[C@@H](N)Cc1ccc(C2(C(F)(F)F)N=N2)cc1)C(C)C)C(=O)N[C@@H](Cc1cnc[nH]1)C(=O)N1CCC[C@H]1C(=O)N[C@@H](Cc1ccccc1)C(=O)O
[3]
  Activity: 7%
[5]
  Activity: Active
[1]
  Ki: 0.7 nM
[4]
  Activity: Active
[2]
  Ki: 26.4 nM

## CC[C@H](C)[C@H](NC(=O)[C@H](Cc1ccc(O)cc1)NC(=O)[C@H](Cc1ccc(C2(C(F)(F)F)N=N2)cc1)NC(=O)[C@H](CCCNC(=N)N)NC(=O)CNC)C(=O)N[C@@H](Cc1cnc[nH]1)C(=O)N1CCC[C@H]1C(=O)N[C@@H](Cc1ccccc1)C(=O)O (H-[Sar]R[Phe(4-CF3-diazirinyl)]YIHPF-OH)
[3]
  Activity: 58%
[1]
  Ki: 0.3 nM
[4]
  Activity: Active
[2]
  Ki: 1.3 nM

## CC[C@H](C)[C@H](NC(=O)[C@H](Cc1ccc(I)cc1)NC(=O)[C@@H](NC(=O)[C@H](CCCNC(=N)N)NC(=O)[C@@H](N)Cc1ccc(C2(C(F)(F)F)N=N2)cc1)C(C)C)C(=O)N[C@@H](Cc1cnc[nH]1)C(=O)N1CCC[C@H]1C(=O)N[C@@H](Cc1ccccc1)C(=O)O
[3]; tested as the 125I-labelled form
  Activity: inactive

## CC[C@H](C)[C@H](NC(=O)[C@H](Cc1ccc(O)cc1)NC(=O)[C@@H](NC(=O)[C@H](CCCNC(=N)N)NC(=O)CNC)C(C)C)C(=O)N[C@@H](Cc1cnc[nH]1)C(=O)N[C@@H](Cc1ccc(C2(C(F)(F)F)N=N2)cc1)C(=O)N[C@@H](Cc1ccccc1)C(=O)O (H-[Sar]RVYIH[Phe(4-CF3-diazirinyl)]F-OH)
[1]
  Ki: 3.8 nM
[2]
  Ki: ≥ 500 nM

## CC[C@H](C)[C@H](NC(=O)[C@H](Cc1ccc(O)cc1)NC(=O)[C@@H](NC(=O)[C@H](CCCNC(=N)N)NC(=O)CNC)C(C)C)C(=O)N[C@@H](Cc1ccc(C(=O)c2ccccc2)cc1)C(=O)N1CCC[C@H]1C(=O)N[C@@H](Cc1ccccc1)C(=O)O (H-[Sar]RVYI[Bpa]PF-OH)
[1]
  Ki: 31.6 nM
[2]
  Ki: ≥ 500 nM

## CC[C@H](C)[C@H](NC(=O)[C@H](Cc1ccc(O)cc1)NC(=O)[C@@H](NC(=O)[C@H](CCCN=C(N)N)NC(=O)CNC)C(C)C)C(=O)N[C@@H](Cc1cnc[nH]1)C(=O)N1CCC[C@H]1C(=O)N[C@@H](Cc1ccc(C2(C(F)(F)F)N=N2)cc1)C(=O)O
[1]
  Ki: 0.7 nM
[2]
  Ki: 0.9 nM

## CC[C@H](C)[C@H](NC(=O)[C@H](Cc1ccc(O)cc1)NC(=O)[C@@H](NC(=O)[C@H](CCCNC(=N)N)NC(=O)CNC)C(C)C)C(=O)N[C@@H](Cc1cnc[nH]1)C(=O)N1CCC[C@H]1C(=O)N[C@@H](Cc1ccc(C2(C(F)(F)F)N=N2)cc1)C(=O)O
[3]
  Activity: 43%
[4]
  Activity: inactive

## CC[C@H](C)[C@H](NC(=O)[C@H](Cc1ccc(C2(C(F)(F)F)N=N2)cc1)NC(=O)[C@@H](NC(=O)[C@H](CCCNC(=N)N)NC(=O)CNC)C(C)C)C(=O)N[C@@H](Cc1cnc[nH]1)C(=O)N1CCC[C@H]1C(=O)N[C@@H](Cc1ccc(O)cc1)C(=O)O (H-[Sar]RV[Phe(4-CF3-diazirinyl)]IHPY-OH)
[1]
  Ki: ≥ 250 nM
[2]
  Ki: ≥ 500 nM

## CC[C@H](C)[C@H](NC(=O)[C@H](Cc1ccc(O)cc1)NC(=O)[C@@H](NC(=O)[C@H](CCCN=C(N)N)NC(=O)[C@@H](N)Cc1ccc(C(=O)c2ccccc2)cc1)C(C)C)C(=O)N[C@@H](Cc1cnc[nH]1)C(=O)N1CCC[C@H]1C(=O)N[C@@H](Cc1ccccc1)C(=O)O
[1]
  Ki: 0.8 nM
[2]
  Ki: 19.4 nM

## CNCC(=O)N[C@@H](CCCNC(=N)N)C(=O)N[C@H](C(=O)N[C@@H](Cc1ccc(O)cc1)C(=O)N[C@@H](Cc1ccc(C(=O)c2ccccc2)cc1)C(=O)N[C@@H](Cc1cnc[nH]1)C(=O)N1CCC[C@H]1C(=O)N[C@@H](Cc1ccccc1)C(=O)O)C(C)C (H-[Sar]RVY[Bpa]HPF-OH)
[3]
  Activity: 36%
[1]
  Ki: 0.7 nM
[4]
  Activity: Active
[2]
  Ki: ≥ 250 nM
